According to US7579475B2, “S-(-)-amlodipine nicotinate and process for the preparation thereof” (Hanlim Pharmaceutical Co., Ltd., priority 2002, dated 2009):

How the values were obtained:
[1] = Photostability test (incandescent lamp, 3 weeks)
Method: 1.0 g of S-(−)-amlodipine besylate prepared, using S-(−)-amlodipine, in accordance with U.S. Pat. No. 4,879,303 and 1.0 g of S-(−)-amlodipine nicotinate dihydrate obtained in Example 1, which were placed in glass schales (100×20 mm), were exposed at 25-30° C. for 3 weeks under an incandescent lamp (220V, 100 W) that was placed at 30 cm above the samples.

[2] = system: spontaneously hypertensive rats (SHRs); assay: In vivo anti-hypertensive activity in spontaneously hypertensive rats (tail-cuff systolic blood pressure); set-up: species or system rat; conditions: SHR; for Maximal anti-hypertensive effect (change of systolic blood pressure) / Intensity (maximal effect of S-(−)-amlodipine nicotinate to maximal effect of amlodipine nicotinate) / ED20 (amount necessary for 20% decrease in the blood pressure) / Intensity (reverse ratio of ED20 values relative to amlodipine nicotinate): oral; for Maximal anti-hypertensive effect (change of systolic blood pressure): mean % ± S.E.M.; for Effect on blood pressure (in words): oral, 1, 3 and 10 mg/kg
Method: Male SHRs (Charles Rever Co., Japan) aged 13-14 weeks were used.
The SHRs having a systolic blood pressure over 170 mmHg were divided into 7 groups, i.e., Test Groups 1 to 3 (for amlodipine nicotinate), Test Groups 4 to 6 (for S-(−)-amlodipine nicotinate) and a Control Group. Each Test Group and Control Group consisted of 6-8 SHRs (n=6-8).
The test compounds were dissolved in distilled water to prepare test solutions immediately prior to administration. The test solutions of amlodipine nicotinate and S-(−)-amlodipine nicotinate were prepared by dissolving 1, 3, and 10 mg/kg in distilled water (0.5 ml/100 g rat), respectively, and then administered orally to each Test Group. The vehicle (distilled water) was administered to Control Group.
The systolic blood pressure was measured with Multichannel 8000 (TSE Co., Germany), using a tail-cuff method. That is, the systolic blood pressures of a tail artery of each rat were measured before the administration of the test solutions and after 2, 4, 6, 8, 10, and 24 hours from the administration thereof. In order to facilitate the measurement of blood pressures, the test animals of each Group underwent warming at 37° C. for about 10 minutes before the measurements.
Statistical analysis of the test results were conducted by an unpaired t-test and ANOVA (one-way analysis of variance) with Sigma Stat program (Jandel Co., USA). The secondary evaluations were conducted by a Dunnett's multiple comparison test.

[3] = listed as S-(−)-Amlodipine nicotinate, dihydrate

Structure (SMILES)	Water contents absorbed during the photostability test ([1]; 25-30° C., 3 weeks under incandescent lamp)	Difference in 1H-NMR before and after photostability test [1]	Photostability (overall conclusion) [1]	Maximal anti-hypertensive effect (change of systolic blood pressure) ([2]; 1 mg/kg) [%]	Intensity (maximal effect of S-(−)-amlodipine nicotinate to maximal effect of amlodipine nicotinate) ([2]; 3 mg/kg)	Maximal anti-hypertensive effect (change of systolic blood pressure) ([2]; 3 mg/kg) [%]	Intensity (maximal effect of S-(−)-amlodipine nicotinate to maximal effect of amlodipine nicotinate) ([2]; 10 mg/kg)	Maximal anti-hypertensive effect (change of systolic blood pressure) ([2]; 10 mg/kg) [%]	Effect on blood pressure (in words) [2]	ED20 (amount necessary for 20% decrease in the blood pressure) ([2]; dihydrate) [mg/kg]	Intensity (reverse ratio of ED20 values relative to amlodipine nicotinate) ([2]; dihydrate)	ED20 (amount necessary for 20% decrease in the blood pressure) [2, 3] [mg/kg]	Intensity (reverse ratio of ED20 values relative to amlodipine nicotinate) [2, 3]	ED20 (amount necessary for 20% decrease in the blood pressure) [2] [mg/kg]	Intensity (reverse ratio of ED20 values relative to amlodipine nicotinate) [2]	ED20 (amount necessary for 20% decrease in the blood pressure) ([2]; listed as Amlodipine nicotinate) [mg/kg]
CCOC(=O)C1=C(COCCN)NC(C)=C(C(=O)OC)[C@@H]1c1ccccc1Cl.O=S(=O)(O)c1ccccc1 [S-(−)-amlodipine besylate]	1.5-2.5															
CCOC(=O)C1=C(COCCN)NC(C)=C(C(=O)OC)C1c1ccccc1Cl (stereo not drawn) [S-(−)-amlodipine nicotinate, S-(−)-amlodipine nicotinate dihydrate]		no significant difference	improved photostability	−12.4 ± 1.73	1.06	−28.3 ± 3.31	1.07	−43.6 ± 1.65	dose-dependently reduced blood pressures	1.91 ± 0.49	about 1.15	1.91 ± 0.49	1.15			
CCOC(=O)C1=C(COCCN)NC(C)=C(C(=O)OC)[C@@H]1c1ccccc1Cl.O=C(O)c1cccnc1 [amlodipine nicotinate]				−10.20 ± 2.71		−26.8 ± 3.22		−40.9 ± 2.08	dose-dependently reduced blood pressures					2.19 ± 0.57	1.00	2.19 ± 0.57
